Values after ≈ are worked out from the molar mass of the structure shown.
Legend:
Type in all cases: cell-based
Escherichia coli = experiment: MIC, broth microdilution, standard strains and Japanese clinical isolates (Example 5, Table 4)
[1] = tested on: Enterobacter cloacae complex; experiment: MIC and MBC, broth microdilution (Example 4, Table 3); details: Enterobacter cloacae complex CDC-164 (NMC-A)
Klebsiella pneumoniae [2] = experiment: MIC, broth microdilution, standard strains and Japanese clinical isolates (Example 5, Table 4)
Enterobacter aerogenes = experiment: MIC and MBC, broth microdilution (Example 4, Table 3)
Klebsiella pneumoniae [3] = experiment: as above
Morganella morganii = experiment: as above; details: Morganella morganii CDC-57 (NDM-1)
[4] = tested on: Metallo-β-lactamase producing strains (N = 27); experiment: MIC50/MIC90 for carbapenemase-producing isolates (Example 5, Table 6); details: metallo-β-lactamase-producing strains; combination: Compound A at a fixed concentration of 4 µg/mL; read-out: MIC90
[5] = ATCCBAA2452, KUB4005 Escherichia coli ATCC BAA-2452, NDM-1
[6] = ATCCBAA2471, KUB4007 Escherichia coli ATCC BAA-2471, NDM-6
[7] = ATCCBAA1898, KUB3996 Klebsiella pneumoniae ATCC BAA-1898, KPC-2
[8] = ATCCBAA1899, KUB3997 Klebsiella pneumoniae ATCC BAA-1899, KPC-2
[9] = ATCCBAA1900, KUB3998 Klebsiella pneumoniae ATCC BAA-1900, KPC-3
[10] = ATCCBAA1904, KUB3999 Klebsiella pneumoniae ATCC BAA-1904, KPC-3
[11] = ATCCBAA2078, KUB4000 Klebsiella pneumoniae ATCC BAA-2078, KPC-3
[12] = ATCCBAA2146, KUB4011 Klebsiella pneumoniae ATCC BAA-2146, NDM-1
[13] = ATCCBAA2342, KUB4003 Klebsiella pneumoniae ATCC BAA-2342, KPC-3
[14] = ATCCBAA2343, KUB4004 Klebsiella pneumoniae ATCC BAA-2343, KPC-3
[15] = ATCCBAA2472, KUB4008 Klebsiella pneumoniae subsp. Pneumoniae ATCC BAA-2472, NDM-1
[16] = ATCCBAA2473, KUB4009 Klebsiella pneumoniae ATCC BAA-2473, NDM-1
[17] = KUB3631 Klebsiella pneumoniae Clinical isolate, IMP-1
[18] = KUB3633 Klebsiella pneumoniae Clinical isolate, IMP-6
[19] = KUB3634 Klebsiella pneumoniae Clinical isolate, IMP-6

## CC(C)(O/N=C(\C(=O)N[C@@H]1C(=O)N2C(C(=O)[O-])=C(C[n+]3ccccc3)CS[C@H]12)c1csc(N)n1)C(=O)O [CAZ, ceftazidime]
Escherichia coli; [5]
  MIC: > 32 µg/mL
Escherichia coli; [6]
  MIC: > 32 µg/mL
[1]
  MBC: 32 µg/mL (≈ 58.5 µM)
  MBC/MIC ratio: 1
  MIC: 32 µg/mL (≈ 58.5 µM)
Klebsiella pneumoniae [2]; [7]
  MIC: > 32 µg/mL
Klebsiella pneumoniae [2]; [8]
  MIC: > 32 µg/mL
Klebsiella pneumoniae [2]; [9]
  MIC: > 32 µg/mL
Klebsiella pneumoniae [2]; [10]
  MIC: 16 µg/mL (≈ 29.3 µM)
Klebsiella pneumoniae [2]; [11]
  MIC: > 32 µg/mL
Klebsiella pneumoniae [2]; [12]
  MIC: > 32 µg/mL
Klebsiella pneumoniae [2]; [13]
  MIC: > 32 µg/mL
Klebsiella pneumoniae [2]; [14]
  MIC: > 32 µg/mL
Klebsiella pneumoniae [2]; [15]
  MIC: > 32 µg/mL
Klebsiella pneumoniae [2]; [16]
  MIC: > 32 µg/mL
Klebsiella pneumoniae [2]; [17]
  MIC: > 32 µg/mL
Klebsiella pneumoniae [2]; [18]
  MIC: 32 µg/mL (≈ 58.5 µM)
Klebsiella pneumoniae [2]; [19]
  MIC: 16 µg/mL (≈ 29.3 µM)
Klebsiella pneumoniae [2]; KUB3635 Klebsiella pneumoniae Clinical isolate, IMP-1
  MIC: > 32 µg/mL
Enterobacter aerogenes; Enterobacter aerogenes CDC-161 (IMP-4)
  MBC/MIC ratio: 1
Enterobacter aerogenes; Klebsiella aerogenes
  MBC: 128 µg/mL (≈ 234 µM)
  MIC: 128 µg/mL (≈ 234 µM)
Klebsiella pneumoniae [3]; ATCCBAA2470, Klebsiella pneumoniae ATCC BAA-2470 (NDM-1), read-out: MIC
  MIC: > 128 µg/mL
Klebsiella pneumoniae [3]; Klebsiella pneumoniae
  MIC: > 128 µg/mL
Klebsiella pneumoniae [3]; Klebsiella pneumoniae ATCC BAA-2524 (OXA-48)
  MBC/MIC ratio: 1
Klebsiella pneumoniae [3]; Klebsiella pneumoniae CDC-505 (NDM-1)
  MIC: >128 µg/mL
Klebsiella pneumoniae [3]; Klebsiella pneumoniae KUB3607 (IMP-1)
  MIC: >128 µg/mL
Klebsiella pneumoniae [3]; Klebsiella pneumoniae NCTC13440 (VIM-1), read-out: MIC
  MIC: > 128 µg/mL
Klebsiella pneumoniae [3]; Klebsiella pneumoniae, ATCCBAA2344
  MIC: > 128 µg/mL
Klebsiella pneumoniae [3]; Klebsiella pneumoniae, ATCCBAA2344, Klebsiella pneumoniae ATCC BAA-2344 (KPC-2)
  MBC: > 128 µg/mL
Klebsiella pneumoniae [3]; Klebsiella pneumoniae, ATCCBAA2470, Klebsiella pneumoniae ATCC BAA-2470 (NDM-1)
  MBC: > 128 µg/mL
Klebsiella pneumoniae [3]; Klebsiella pneumoniae, ATCCBAA2524, Klebsiella pneumoniae ATCC BAA-2524 (OXA-48)
  MBC: 0.5 µg/mL (≈ 0.915 µM)
Klebsiella pneumoniae [3]; Klebsiella pneumoniae, ATCCBAA2524, Klebsiella pneumoniae ATCC BAA-2524 (OXA-48), read-out: MIC
  MIC: 0.5 µg/mL (≈ 0.915 µM)
Klebsiella pneumoniae [3]; Klebsiella pneumoniae, Klebsiella pneumoniae CDC-112 (KPC-3)
  MBC: > 128 µg/mL
Klebsiella pneumoniae [3]; Klebsiella pneumoniae, Klebsiella pneumoniae CDC-505 (NDM-1)
  MBC: > 128 µg/mL
Klebsiella pneumoniae [3]; Klebsiella pneumoniae, Klebsiella pneumoniae KUB3607 (IMP-1)
  MBC: > 128 µg/mL
Klebsiella pneumoniae [3]; Klebsiella pneumoniae, NCTC13440, Klebsiella pneumoniae NCTC13440 (VIM-1)
  MBC: > 128 µg/mL
Morganella morganii
  MBC: > 128 µg/mL
  MIC: > 128 µg/mL

## CC(C)(O/N=C(\C(=O)N[C@@H]1C(=O)N2C(C(=O)[O-])=C(C[N+]3(CCNC(=O)c4ccc(O)c(O)c4Cl)CCCC3)CS[C@H]12)c1csc(N)n1)C(=O)O [Cefiderocol, cefiderocol]
Escherichia coli; [5]
  MIC: 0.5 µg/mL (≈ 0.665 µM)
Escherichia coli; [6]
  MIC: 4 µg/mL (≈ 5.32 µM)
[4]
  MIC90: 8 µg/mL
Klebsiella pneumoniae [2]; [7]
  MIC: 2 µg/mL (≈ 2.66 µM)
Klebsiella pneumoniae [2]; [8]
  MIC: 2 µg/mL (≈ 2.66 µM)
Klebsiella pneumoniae [2]; [9]
  MIC: 0.25 µg/mL (≈ 0.332 µM)
Klebsiella pneumoniae [2]; [10]
  MIC: 1 µg/mL (≈ 1.33 µM)
Klebsiella pneumoniae [2]; [11]
  MIC: 2 µg/mL (≈ 2.66 µM)
Klebsiella pneumoniae [2]; [12]
  MIC: 2 µg/mL (≈ 2.66 µM)
Klebsiella pneumoniae [2]; [13]
  MIC: 0.5 µg/mL (≈ 0.665 µM)
Klebsiella pneumoniae [2]; [14]
  MIC: 0.25 µg/mL (≈ 0.332 µM)
Klebsiella pneumoniae [2]; [15]
  MIC: 8 µg/mL (≈ 10.6 µM)
Klebsiella pneumoniae [2]; [16]
  MIC: 8 µg/mL (≈ 10.6 µM)
Klebsiella pneumoniae [2]; [17]
  MIC: 2 µg/mL (≈ 2.66 µM)
Klebsiella pneumoniae [2]; [18]
  MIC: 1 µg/mL (≈ 1.33 µM)
Klebsiella pneumoniae [2]; [19]
  MIC: 2 µg/mL (≈ 2.66 µM)

— EP4635500A1, “THERAPEUTIC AGENT FOR BACTERIAL INFECTION” (Sumitomo Pharma Co., Ltd., priority 2022, dated 2024)
